Structures are written as SMILES.

We go through 84 compounds from a melting point compilation (Tetko et al.; mined from patent text by program, amines drawn as free bases though some values may be those of a salt).

The term melting point denotes the temperature, or range, at which the solid turns liquid. `O=C(Cl)c1ncn(Cc2ccc(Cl)c(Cl)c2)c1C(=O)Cl` yielded a melting point of 126 to 128 °C.

As for `CS(=O)(=O)c1ccc(C2=C(c3ccc(-c4ccsc4)cc3)C(=O)OC2)cc1`, the melting point is 220 to 222 °C.

As to `CCOc1cccc(C(COC)n2nc(C(=O)O)c3c2-c2ccc(OCc4cncnc4)cc2CC3)c1` (centres undefined), the melting point lay within 208 to 211 °C.

The compound `CCCCCn1nc(-c2ccc(F)cc2)c(-c2ccc(S(C)(=O)=O)cc2)cc1=O` gave a melting point of 65 to 67 °C.

`CC1=CN2CCS(=O)(=O)N=C2C(c2ccc(OC3CCCCC3)cc2)=N1` returned a melting point of 216 to 217 °C.

`CNCC1CCN(c2ccc(Cl)cc2NC(=O)c2csc3cncnc23)CC1`: the melting point fell in the range of 190 to 193 °C.

With `Cc1nc2cnc3cc(Cl)ccc3c2s1`, the melting point was in the range of 181 to 183 °C.

For `CC(C)Nc1nc2ccccc2n2c(C(F)(F)F)nnc12`, the melting point lay in the range of 185 to 187 °C.

Compound `Cc1nc(S)c2[nH]cnc2n1` returned a melting point of more than 300 °C.

In turn, `Cc1cccc(NC(=O)NC2CN(Cc3ccccc3)c3ccccc3N(CC(=O)c3ccccc3C)C2=O)c1` (centres undefined) returned a melting point of 169 to 172 °C.

As for `CCOC(=O)c1sc(SC)c2c1CCC(NC(C)=O)C2=O` (centres undefined), the melting point fell in the range of 215 to 216 °C.

Take `CC(=O)Nc1ccc(OC(C)=O)c(C(=O)Nc2cccc3[nH]ccc23)c1`: the melting point came out at 263 °C.

`FC(F)(F)c1ccc2c(c1)N(C1=CCCN1C1=NCCC1)c1ccccc1O2` came in with a melting point of 140 to 142 °C.

On to `CN1CCN(CC/C=C/c2cc3c(Nc4ccc5[nH]ccc5c4)c(C#N)cnc3s2)CC1`, for which the melting point amounted to 220 °C.

In turn, `O=[N+]([O-])c1cnc(Oc2cnc3ccccc3c2)c(Cl)c1` displayed a melting point of 123 to 127 °C.

`CC(C)n1nc(-c2sc(NC(=O)c3ccc(CN(C)CCN(C)C)cc3)nc2-c2ccccc2)ccc1=O` came in with a melting point of 131 to 133 °C.

In turn, `Cc1[nH]cnc1CC1CCc2c(c3ccccc3n2C)C1=O` (single isomer, unassigned; (+)) yielded a melting point of 230 to 232 °C.

Take `O=C(Oc1ccc(C(=C2CCCCC2)c2ccc(OC(=O)c3ccccc3)c(OC(=O)c3ccccc3)c2)cc1OC(=O)c1ccccc1)c1ccccc1`: the melting point was found to be 176 °C.

`CC(=O)OCC1OC(n2cc(F)c(=O)[nH]c2=O)CC1OCc1ccccc1` (centres undefined) displayed a melting point of 87 to 88 °C.

Regarding `CC(=O)Nc1ccc(-c2ncc(C(=O)O)c(O)n2)cc1`, the melting point was more than 310 °C.

In turn, `Oc1cccc(F)c1OC(COCc1ccccc1)C(Cl)COCc1ccccc1` (centres undefined) gave a melting point of 77 to 79 °C.

`CC(C)(C)OC(=O)NS(=O)(=O)c1ccc(Cl)cc1` came in with a melting point of 98 to 99 °C.

In the case of `CCOC(=O)C(Cc1ccccc1)(Cc1ccc([N+](=O)[O-])cc1)C(=O)OCC`, the melting point is 70 to 71 °C.

As for `COCC1=C(C(=O)OC)[C@H](c2ccc(F)c(F)c2)N(C(=O)NCCC(=O)O)C(=O)N1`, the melting point lay within 52 to 55 °C.

In the case of `O=S1(=O)CCN(CC#Cc2cnc3c(c2)N(Cc2cc(Cl)ccc2Cl)CCN3)CC1`, the melting point was more than 200 °C.

The compound `CC1(C)CCC2(CC1S(=O)(=O)c1ccccc1)OCCO2` (centres undefined) registered a melting point of 113 to 115 °C.

As for `Cc1ccc(C(=O)N2CCC(CN3CCc4oc5ccccc5c4C3)CC2)cc1`, the melting point came to 140 °C.

Turning to `CC(C)c1nnnn1-c1cc(C(=O)O)cc(-c2ccc(Cl)cn2)c1`, the melting point was 180 to 181 °C.

In the case of `COc1ccc(Br)cc1C1=NC(C)(C)CO1`, the melting point stood at 41 °C.

`CCCCOc1ccc(S(=O)(=O)C2(C(=O)O)CCN(Cc3ccc(C)cc3)CC2)cc1` registered a melting point of 137 °C.

For `CON=C(C)c1cccc(NC(=O)NCC(=O)N(C)c2ccc(Cl)c(COc3cccc4ccc(C)nc34)c2Cl)c1`, the melting point is 218 to 224 °C.

As to `O=C(OCc1ccc(Br)cc1)C1C(=O)OC2CC(=O)N21` (centres undefined), the melting point was found to be 106 °C.

Compound `CCC(C(=O)OCC[Si](C)(C)C)c1ccccc1CCC(=O)c1cccc(C=Cc2ccc3ccc(Cl)cc3n2)c1` (centres undefined) gave a melting point of 109 to 111 °C.

For the compound `O=[N+]([O-])c1ccc(C#CCCN2CCN(c3ccccn3)CC2)nc1`, the melting point was 126 °C.

`CN(C)S(=O)(=O)CC(CS(=O)(=O)c1ccc(Oc2ccc(OC(F)(F)F)cc2)cc1)N(O)C=O` (centres undefined) had a melting point of 124 to 126 °C.

In the case of `O=C(Nc1ccc([N+](=O)[O-])cc1)N1CC=CCC1`, the melting point was in the range of 169 to 170 °C.

In turn, `O=S(=O)(c1ccc(Cl)cc1)C(c1ccncc1)c1cc(F)ccc1F` (centres undefined) came in with a melting point of 126 to 127 °C.

Regarding `O=C(Nc1c[nH]nc1C(=O)NCc1ccccc1)c1ccccn1`, the melting point lay in the range of 204 to 205 °C.

For `CC(C)(CO)Nc1nc(SCc2cccc(F)c2F)nc2nc(N)sc12`, the melting point was in the range of 231 to 234 °C.

The compound `CCOC(=O)C(C)(C)CCCCCOc1ccc(NC(=O)CCCCCn2ccnc2)cc1` displayed a melting point of 59 °C.

Regarding `C=Cc1cn(-c2c(Cl)cc(C(F)(F)F)cc2Cl)nc1C`, the melting point was in the range of 68.1 to 68.7 °C.

In turn, `Cc1noc(NS(=O)(=O)c2ccsc2C(=O)Nc2cc3c(cc2C#N)OCO3)c1Cl` showed a melting point of 167 to 168 °C.

As to `Cn1nnnc1-c1cn(C)c2cc(S(=O)c3ccccc3)ccc2c1=O` (centres undefined), the melting point lay in the range of 217 to 220 °C.

As for `CCOC(=O)c1c(=O)c2cc(F)c(F)cc2n2ccccc12`, the melting point is 200 °C.

With `CC(Oc1ccc(C2CCOCC2)cc1)C(=O)O` (centres undefined), the melting point turned out to be 156 °C.

Turning to `CCCc1c(OCCCSc2c(F)cccc2C(=O)CCC(=O)O)ccc(C(C)=O)c1O`, the melting point is 115 to 116 °C.

As for `CCOC(=O)C1=C(C)Nc2nc(N3CCOCC3)nc(N3CCOCC3)c2C1c1c(F)c(F)c(F)c(F)c1F` (centres undefined), the melting point amounted to 195 °C.

`O=C(NCCC1CC2CCC1C2)n1cc(F)c(=O)[nH]c1=O` (centres undefined) displayed a melting point of 128 to 130 °C.

`COc1cc(N2CCN(CCC3CN(C)C(=O)O3)CC2)cc(OC)c1OC` (centres undefined): the melting point lay in the range of 86 to 88 °C.

`CC/C=C\C#CCCCCCCCCCCO` gave a melting point of 6 to 7 °C.

`CCCCCC(=O)NCCc1ccc(S(=O)(=O)NC(=O)c2ccc(C(=O)NCC(=O)OC)nc2)cc1` had a melting point of 128 to 130 °C.

With `COc1ccccc1-c1c2nn(-c3ccc(Cl)cc3)c(=O)c-2c[nH]c1C`, the melting point lay in the range of 267 to 278 °C.

For `Nc1c(-c2cc(Cl)ccc2O)c2c(Cl)c(Cl)ccc2[nH]c1=O`, the melting point was 263 to 265 °C.

As for `CC(C)(C)c1ccc(C(=O)Nc2cc(Cl)c(N)cc2O)cc1`, the melting point was in the range of 164 to 165 °C.

With `Nc1ncnc2c1c(-c1ccc(Oc3ccccc3CN3CCOCC3)cc1)cn2C1CCOC1` (centres undefined), the melting point fell in the range of 169 to 171 °C.

`Cc1c(C)c2c(c(C)c1NC(=O)CC(C)(C)C)C(C1CCCCC1)C(C)(C)O2` (centres undefined): the melting point fell in the range of 198 to 199 °C.

In the case of `C#CCOC(=O)C1=C(C)N(C)C(C)=C(C(=O)OCC#C)C1c1cccc(C(F)(F)F)c1`, the melting point came to 163 °C.

Compound `CCC(=O)C1=C(O)CC(c2ccc3c(c2)OCO3)CC1=O` (centres undefined) came in with a melting point of 129 °C.

The compound `O=S1(=O)NC(Cl)=Nc2ccc(Cl)cc21` came in with a melting point of 242 to 244 °C.

`CSc1ccc(-c2cc(-c3nc4ccccc4c(=O)n3-c3ccc(C)cc3)sc2N2CCOCC2)cc1`: the melting point fell in the range of 238 to 240 °C.

The compound `Cc1nc(N2CCN(Cc3ccccc3)C2=N)sc1C(=O)NCc1ccc(F)cc1` registered a melting point of 142 to 144 °C.

`Cc1c(F)cccc1Cc1c(-c2ccccc2)c2cc(C=O)cnn2c1C(=O)N1CCN(C(=O)OC(C)(C)C)CC1` displayed a melting point of 208 to 209 °C.

Regarding `CC(C)(C)c1cc(CCc2ccccc2NC(=O)NCCCCc2ccccc2)cc(C(C)(C)C)c1O`, the melting point turned out to be 157 °C.

Regarding `O=c1[nH]c2ccccc2c2cc(CO)nn12`, the melting point was 286 to 288 °C.

In turn, `Cc1cc(Nc2ccccc2C(=O)N2CCCCC2)ccn1` showed a melting point of 93 to 95 °C.

As for `N#CCc1cccc2c(C3CCCCC3)nccc12`, the melting point lay within 85.3 to 85.6 °C.

Turning to `Cc1cc(-c2nncc3c(Br)c(OCc4ncnn4C)nn23)no1`, the melting point fell in the range of 239 to 241 °C.

Compound `CCCCCC(=O)OCc1nccc(Oc2ccc3c(C(=O)OCC)csc3c2)n1` showed a melting point of 51 °C.

In the case of `CCSC(=O)Cc1cc(Oc2ccc(C(F)(F)F)cc2Cl)ccc1[N+](=O)[O-]`, the melting point lay in the range of 82.5 to 84.2 °C.

`Cc1cnccc1Nn1ccc2ccccc21` showed a melting point of 78 to 80 °C.

The compound `COc1ccc(/C=C/C(=O)/C=C/C(=O)O)c(OC)c1OC` registered a melting point of 125 to 127 °C.

In turn, `Cc1ccc2c(c1)C(C(=O)O)c1ccccc1CO2` (centres undefined) showed a melting point of 183 to 184 °C.

In turn, `O=C(O)c1ncncc1Br` had a melting point of 200 °C.

`N#CCCCCCC#Cc1nc(N)c2ncn(C3OC(CO)C(O)C3O)c2n1` (centres undefined) gave a melting point of 99 to 101 °C.

For `CCN1CC(=O)N(c2cc(Cl)ccc2C)C1=S`, the melting point fell in the range of 152 to 154 °C.

The compound `CSc1c(C#N)nn(-c2c(Cl)cc(C(F)(F)F)cc2Br)c1N` came in with a melting point of 178 to 180 °C.

Compound `CCCCOC(=O)CSc1ncnc2c(O)n(C)nc12` gave a melting point of 172 °C.

For the compound `CC(CN1CCCC1)N1c2ccccc2Sc2ccc(C(=O)NCCC(C)(C)C)cc21` (racemic), the melting point stood at 138 °C.

Consider `CC(Oc1cccc(Oc2ccc(C(F)(F)F)cc2)c1)C(=O)OCCS(=O)Cc1ccccc1` (centres undefined), for which the melting point fell in the range of 110 to 112 °C.

In turn, `CCCCCCCNC(=O)Nc1ccccc1C(=O)N1CCCN(C(c2ccccc2)c2ccccc2)CC1` came in with a melting point of 125 °C.

Turning to `Nc1ncccc1CNC(=O)C1Cc2ccccc2N1S(=O)(=O)c1ccc(-c2cccc(C(F)(F)F)c2)cc1` (centres undefined), the melting point was determined as 94 °C.

On to `CS(=O)(=O)c1ccc(NCCc2[nH]c3c(cnc4cc(Cl)ccc43)c2C=NNc2ccccc2)cc1`, for which the melting point lay within 185 to 186 °C.

For the compound `CCN(C(=O)N(C)C)c1nnc(S(=O)(=O)N(C)C)s1`, the melting point lay in the range of 75 to 77 °C.

`Fc1ccc(OCCCN2CCC(CNc3nc4ccccc4s3)CC2)c(OCc2ccccc2)c1` registered a melting point of 130 °C.
